“Also recorded” adds a separate entry of the source.
Tests used:
Type in all cases: cell-based
[1] = tested on: Heterogeneous IM preadipocytes; test: GPDH activity in heterogeneous bovine IM preadipocytes, IBU, aspirin or indomethacin for 12 days (Example 5)
Experimental: (§1) Preadipocytes from IM and SC adipose tissue were isolated using a modification of Forest et al., 1987, Exp. Cell Res. 168:218-232. Cells were seeded at a density of 4,160 cells/cm^2 in 35 mm cell culture wells in DMEM with 5.5 mM glucose, supplemented with 100 units/ml penicillin G, 0.1 mg/ml streptomycin sulfate, 0.25 μg/ml amphotericin B, 0.05 mg/ml gentamicin, 33 μM biotin, 17 μM pantothenate, 200 μM ascorbate, 1 mM octanoate, and 10% fetal bovine serum. The cells were grown in a 37° C./5% CO2 incubator. Growth media was replaced every two days until the cells reached confluency (approximately 4 days), at which point the cells were washed twice with phosphate buffered saline (PBS) and differentiation treatments were applied. The differentiation medium consisted of DMEM with 5.5 mM glucose, 100 units/ml penicillin G, 0.1 mg/ml streptomycin sulfate, 0.25 μg/ml amphotericin B, 0.05 mg/ml gentamicin, 33 μM biotin, 17 μM pantothenate, 200 μM ascorbate, 280 nM bovine insulin, and 5 μl/ml bovine serum lipids (Ex-Cyte, Serologicals Corp., Norcross, Ga.). After 48 hours of differentiation media exposure, the cells were washed twice with PBS and differentiation media was replaced every two days for 10 days. Glycerol-3-phosphate dehydrogenase (GPDH) activity was quantified biochemically by measuring GPDH enzyme activity using a modification of a previously published method (Adams et al., J. Clin. Invest. 100:3149-3153). […] Media was changed every two days as previously described until day 12. Adipogenesis was quantitated by measuring GPDH activity. Data were analyzed using the mixed model procedure of SAS (SAS, Cary, N.C.). In all experiments, pooled cells from two wells of a 6 well (35 mm) plate were considered the experimental unit. When main effects were significant (P<0.05), differences between means were evaluated utilizing Tukey's multiple comparison test. […] To satisfy the conditions of normality and homogeneity of variance, GPDH data were loge transformed in Example 2, and GPDH data were square root transformed in Example 3.

[2] = tested on: Heterogeneous SC preadipocytes; test: GPDH activity in heterogeneous bovine SC preadipocytes, IBU, aspirin or indomethacin for 12 days (Example 5); conditions: for GPDH activity versus control: P<0.001
Experimental: as §1

[3] = tested on: bovine preadipocytes isolated from intramuscular (IM) adipose tissue; test: GPDH activity in bovine IM preadipocytes, 48 h exposure to DEX and IBU (Example 3, FIG. 2); conditions: 48 hours with 25 nM DEX
Experimental: (§6) The cells were grown in a 37° C./5% CO2 incubator. Growth media was replaced every two days until the cells reached confluency (approximately 4 days), at which point the cells were washed twice with phosphate buffered saline (PBS) and differentiation treatments were applied. The differentiation medium consisted of DMEM with 5.5 mM glucose, 100 units/ml penicillin G, 0.1 mg/ml streptomycin sulfate, 0.25 μg/ml amphotericin B, 0.05 mg/ml gentamicin, 33 μM biotin, 17 μM pantothenate, 200 μM ascorbate, 280 nM bovine insulin, and 5 μl/ml bovine serum lipids (Ex-Cyte, Serologicals Corp., Norcross, Ga.). After 48 hours of differentiation media exposure, the cells were washed twice with PBS and differentiation media was replaced every two days for 10 days. […] After treatment for 48 hours, media was changed as previously described until day 10. Cells from two beef steers were used, and duplicates of each steer treatment were done. Adipogenesis was quantitated by measuring GPDH activity. Data were analyzed using the mixed model procedure of SAS (SAS, Cary, N.C.). In all experiments, pooled cells from two wells of a 6 well (35 mm) plate were considered the experimental unit. When main effects were significant (P<0.05), differences between means were evaluated utilizing Tukey's multiple comparison test.

[4] = tested on: bovine preadipocytes isolated from subcutaneous (SC) adipose tissue; test: GPDH activity in bovine SC preadipocytes, 48 h exposure to DEX and IBU (Example 3, FIG. 2); conditions: IBU for 48 hours with 25 nM DEX
Experimental: as §6

[5] = tested on: bovine heterogeneous preadipocyte cultures from intramuscular (IM) adipose tissue; test: GPDH activity in heterogeneous bovine IM preadipocytes, 12 day exposure with DEX (Example 4, FIG. 3)
Experimental: (§2) Preadipocytes from IM and SC adipose tissue were isolated using a modification of Forest et al., 1987, Exp. Cell Res. 168:218-232. Cells were seeded at a density of 4,160 cells/cm^2 in 35 mm cell culture wells in DMEM with 5.5 mM glucose, supplemented with 100 units/ml penicillin G, 0.1 mg/ml streptomycin sulfate, 0.25 μg/ml amphotericin B, 0.05 mg/ml gentamicin, 33 μM biotin, 17 μM pantothenate, 200 μM ascorbate, 1 mM octanoate, and 10% fetal bovine serum. The cells were grown in a 37° C./5% CO2 incubator. Growth media was replaced every two days until the cells reached confluency (approximately 4 days), at which point the cells were washed twice with phosphate buffered saline (PBS) and differentiation treatments were applied. […]
(§3) Glycerol-3-phosphate dehydrogenase (GPDH) activity was quantified biochemically by measuring GPDH enzyme activity using a modification of a previously published method (Adams et al., J. Clin. Invest. 100:3149-3153).
(§4) Media was changed every two days as previously described until day 12. Adipogenesis was quantitated by measuring GPDH activity.
(§5) Data were analyzed using the mixed model procedure of SAS (SAS, Cary, N.C.). […] When main effects were significant (P<0.05), differences between means were evaluated utilizing Tukey's multiple comparison test. […]

[6] = tested on: bovine heterogeneous preadipocyte cultures from subcutaneous (SC) adipose tissue; test: GPDH activity in heterogeneous bovine SC preadipocytes, 12 day exposure with DEX (Example 4, FIG. 3)
Experimental: as §2, §3, §4, §5

For COc1ccc2c(c1)c(CC(=O)O)c(C)n2C(=O)c1ccc(Cl)cc1 [Indomethacin, indomethacin], the toxicity to cells ([1]; IM preadipocytes, 500 μM, up to 12 days) was “toxic to cells” and the toxicity to cells ([2]; SC preadipocytes, 500 μM, up to 12 days) was “toxic to cells”.
For CC(C)Cc1ccc(C(C)C(=O)O)cc1 (centres unmarked) [IBU, 2-(p-isobutylphenyl)propionic acid], the “effect of IBU on DEX stimulation of GPDH activity” value (“effect of IBU … of GPDH activity” for short) ([3]; 1000 μM IBU) was “enhanced DEX stimulation of GPDH activity”, the “effect of IBU … of GPDH activity” value ([3]; 2000 μM IBU) was “enhanced DEX stimulation of GPDH activity” and the “effect of IBU … of GPDH activity” value [4] was “did not enhance DEX stimulation of GPDH activity”. For the same compound, the “effect of IBU on DEX induction of differentiation (GPDH)” value (shortened to “effect … of differentiation (GPDH)”) ([5]; 100 μM IBU) was “enhanced DEX induction of differentiation”, the “effect … of differentiation (GPDH)” value ([5]; 500 μM IBU) was “enhanced DEX induction of differentiation” and the “effect … of differentiation (GPDH)” value ([6]; SC cells, 100 μM IBU) was “enhanced DEX induction of differentiation”. For the same compound, the “effect of IBU on DEX stimulation of GPDH” value ([6]; SC preadipocytes, 1000 μM IBU) was “reduced DEX stimulation of GPDH”, the “GPDH activity versus control” value ([1]; IM cells, 1000 μM IBU, 12 days, absence of DEX, P=0.003) was “higher than control” and the “maximum induction of GPDH activity” value ([1]; IM cells, IBU, 12 days, absence of DEX) was 12 fold over control. For the same compound, the “GPDH activity versus control” value ([1]; IM preadipocytes, 500 μM IBU, 12 days, absence of DEX) was “enhanced GPDH”, the “maximum induction of GPDH activity” value ([2]; SC cells, IBU, 12 days, absence of DEX) was 1.7 fold over control and the “GPDH activity versus control” value ([2]; SC preadipocytes, 10 μM IBU, 12 days, absence of DEX) was “enhanced GPDH activity”. For the same compound, the “GPDH activity versus control” value ([2]; SC preadipocytes, 100 μM IBU, 12 days, absence of DEX) was “enhanced GPDH activity” and the “GPDH activity versus control” value ([2]; SC preadipocytes, 500 μM IBU, 12 days, absence of DEX) was “enhanced GPDH activity”.
In the case of CC(=O)Oc1ccccc1C(=O)O [Aspirin, aspirin], the “GPDH activity, aspirin alone” value ([1]; IM preadipocytes, 500 μM, 12 days, alone) is reported as “did not affect GPDH activity; also recorded: did not enhance GPDH activity”, the “GPDH activity, aspirin in combination with DEX” value ([1]; IM preadipocytes, 500 μM, 12 days, with DEX) is reported as “did not enhance GPDH activity” and the “GPDH activity, aspirin alone” value ([2]; SC preadipocytes, 500 μM, 12 days, alone) is reported as “did not affect GPDH activity; also recorded: did not enhance GPDH activity”. For the same compound, the “GPDH activity, aspirin in combination with DEX” value ([2]; SC preadipocytes, 500 μM, 12 days, with DEX) was “did not enhance GPDH activity”.
